Data published in patent EP4656194A1, “COMPOSITION FOR PREVENTING OR TREATING POST-TRAUMATIC STRESS DISORDER, COMPRISING PHOSPHODIESTERASE TYPE 5 INHIBITOR AS ACTIVE INGREDIENT” (Aribio Co., Ltd, priority 2023, dated 2024).

How the values were obtained:
[1] = system: context-specific fear memory; experiment: Passive avoidance test; format: in vivo; settings: 12 MPK p.o. once daily, after 15 doses, followed by electric shock; male ICR mice
Protocol: (§1) Twenty-eight male ICR mice, 5 weeks old, weighing approximately 27-30 g, were used. The animals were housed in a controlled environment with a temperature of 26.8 ± 0.5°C, relative humidity of 48.4 ± 1.7%, and lighting from 07:00 to 19:00. They were fed a standard diet (AIN-93G diet) and given free access to drinking water. After 7 days of acclimation and habituation, healthy animals were selected for the experiments.
(§2) Mirodenafil was dissolved in 10 mL of distilled water to prepare a 12 mg/kg (MPK) solution. Sildenafil and tadalafil were similarly prepared at 12 MPK each.
(§3) • 1) Control group (n=7): p.o. administration of distilled water (D.W.) • 2) Experimental group 1 (n=7): p.o. administration of mirodenafil (12 MPK) • 3) Experimental group 2 (n=7): p.o. administration of sildenafil (12 MPK) • 4) Experimental group 3 (n=7): p.o. administration of tadalafil (12 MPK)
(§4) Following 7 days of acclimation, the control group received distilled water orally once daily for 15 days, and the experimental groups received their respective drugs orally once daily for 15 days.
The passive avoidance step-through apparatus was illuminated in the bright chamber at 50% lightness. Mice were placed inside and allowed to move freely between the bright and dark chambers for 5 minutes. After 5 minutes, accommodation was terminated, and mice rested in their home cages.
Mice that completed accommodation were placed in the bright chamber under the same lighting conditions. When the mouse fully entered the dark chamber (all four paws on the floor), an electric shock (0.4 mA, 2 seconds, repeated twice with a 2-second interval) was delivered (maximum latency: 65 seconds, single session). […]
Mice that completed training were placed again in the bright chamber under the same conditions. The latency to enter the dark chamber (all four paws touching the floor) was recorded without shock (maximum latency: 300 seconds). […]
(§5) Data were expressed as mean ± standard error of the mean (SEM). Statistical significance was assessed by T-test with thresholds of P < 0.01 or *0.01 < P < 0.05. […]

[2] = system: object recognition and memory; experiment: Novel object recognition test; format: in vivo, male ICR mice; settings: 12 MPK p.o. once daily, eight days after drug administration; control group 49.0%
Protocol: as §1, §2, §3, §4
Mice were placed in the center of a rat cage and allowed to explore freely for 5 minutes (accommodation). Afterward, mice rested in their home cages.
Following accommodation, two identical objects (Object A and Object B) of the same color, shape, and size were placed at fixed intervals in the cage. […]
Twenty-four hours after Training 1, mice were reintroduced to the cage with the same objects (A and B) spaced similarly. Exploration time of each object was recorded for 5 minutes. […]
Twenty-four hours after Training 2, mice were introduced to the cage containing one familiar object (A) and one novel object (C) differing in color, shape, or size. Exploration time was recorded for 5 minutes. The percentage of time spent exploring each object was calculated using the following formula: (Formula to calculate % exploration time for objects) • i. […]
as §5

[3] = system: spatial recognition and memory; experiment: Y-maze test; format: in vivo, male ICR mice; settings: 12 MPK p.o. once daily, ten days after drug administration; control 61.8%
Protocol: as §1, §2, §3, §4
Mice were placed at the center of a Y-maze and allowed to explore for 8 minutes. Entries were recorded when all four paws fully entered an arm. The maze was cleaned with 70% alcohol between tests. Spontaneous alternation behavior was analyzed using the Yamada statistical method. An alternation was counted when the mouse consecutively entered three different arms. The percentage of spontaneous alternation was calculated as (number of alternations / total arm entries) × 100. • iii. Recording data(ex): BCABCBABCBCABBCACBACCABCABCACBCABC • iv. [formula]
Data were expressed as mean ± standard error of the mean (SEM). Statistical significance was assessed by T-test with thresholds of P < 0.01 or *0.01 < P < 0.05. Data analysis and plotting were performed using Prism 8 software.

| SMILES | decrease of latency time compared to the control [1] [%] | exploration of novel objects [2] [%] | spontaneous alternation rates [3] [%] |
| --- | --- | --- | --- |
| CCCOc1ccc(S(=O)(=O)N2CCN(CCO)CC2)cc1-c1nc2c(CCC)cn(CC)c2c(=O)[nH]1 [mirodenafil] | 73.5 | 53.7 | 58.4 |
| CCCc1nn(C)c2c(=O)[nH]c(-c3cc(S(=O)(=O)N4CCN(C)CC4)ccc3OCC)nc12 [sildenafil] | 55.5 | 57.9 | 60.7 |
| CN1CC(=O)N2[C@H](c3ccc4c(c3)OCO4)c3[nH]c4ccccc4c3C[C@@H]2C1=O [tadalafil] | 63.2 | 57.0 | 59.6 |
